{
  "source": "patent US11976116B2",
  "about": "“Salvage chimeric antigen receptor systems” (2seventy bio, Inc., priority 2016, dated 2024)",
  "key": {"K562-BCMA positive cells [1]": {"tested_on": "K562-BCMA positive cells", "test": "IFNγ release assay (ELISA), CAR T cells co-cultured with K562-BCMA positive cells", "format": "cell-based", "conditions": "24 hours, E:T 1:1", "procedure": "(§1) Human PBMCs (1×10^6 cells/mL) were activated with soluble anti-CD3 and anti-CD28 antibodies (50 ng/ml) on day 0. After 24 hr incubation, 1×10^6 cells were transduced with lentivirus encoding either an anti-BCMA CAR or an anti-BCMA salvage CAR. The transduced cells were washed and resuspended at 0.3×10^6 cells/mL growth medium on day 3. The CAR T cells were cultured for 7 days with IL-2 (250 IU/mL) containing medium changed every other day.\nAntigen dependent cytokine secretion was analyzed by co-culturing day 10 CAR T cells with K562-BCMA positive cells for 24 hours at an E:T ratio of 1:1 (with or without AP21967). Culture supernatants were collected and IFNγ production was analyzed using the IFNγ ELISA kit (eBiosciences)."}, "K562-BCMA positive cells [2]": {"tested_on": "K562-BCMA positive cells", "test": "Cytotoxicity assay, CAR T cells co-cultured with K562-BCMA positive and negative cells", "format": "cell-based", "conditions": "20 nM AP21967, 24 hours, E:T 5:1", "procedure": "as §1\nThe cytotoxic potential of anti-BCMA CAR T cells and anti-BCMA salvage CAR T cells was analyzed by co-culturing day 10 CAR T cells (E, effector cells) with a 50:50 mixture of K562-BCMA positive cells (GFP positive) (T, target cells) and K562-BCMA negative cells (BFP positive) for 24 hours at an E:T ratio of 5:1. Cells were co-cultured with or without 20 nM AP21967 (a non-immunosuppressive rapamycin analog). The ratio of K562-BCMA positive cells to K562-BCMA negative cells is a direct readout of CAR T cell cytotoxicity."}, "[3]": {"conditions": "target and assay not given; cited from earlier work"}, "[4]": {"tested_on": "BCMA negative, CD19 positive Nalm-6 cells", "test": "Cytotoxicity assay, anti-BCMA salvage CAR T cells co-cultured with Nalm-6-CD19 positive and K562-CD19 negative cells", "format": "cell-based", "conditions": "250 ng pre-loaded receptor, with or without 100 nM AP21967, 24 hr, E:T 2:1", "excerpt": "293 T cells were transduced with lentivirus encoding the dimerizable anti-CD19 salvage receptor to generate a stable source of secreted anti-CD19-scFv-FKBP12 proteins (FIG. 1, right panel). Supernatant containing soluble anti-CD19 salvage receptor polypeptides (anti-CD19 scFV FKBP12) was collected from stable 293T-710 cells and filtered.\nThe anti-CD19 salvage receptor forms a heterodimer with the anti-BCMA salvage CAR in the presence of AP21967 (FIG. 3A). The cytotoxic potential of anti-BCMA salvage CAR T cells (E) against BCMA negative, CD19 positive Nalm-6 cells (T) was analyzed by co-culturing CAR T cells with a 50:50 mixture of Nalm-6-CD19 positive cells (GFP positive) and K562-CD19 negative cells (BFP positive) for 24 hours at an E:T ratio of 2:1. The co-cultures were treated with vehicle or 100 nM AP21967 and with different volumes of 293T-710 cell supernatant (0 μl, 10 μl, or 30 μl). […] FIG. 3B.\nT cells were transduced with lentiviral vectors encoding an anti-BCMA CAR or anti-BCMA salvage CAR. The CART cells were co-cultured with a 50:50 mixture of CD19 positive Nalm-6 cells expressing GFP and CD19 negative K562 cells expressing BFP, in the presence or absence of 250 ng pre-loaded dimerizable anti-CD19 salvage receptor, with or without 100 nM AP21967, for 24 hr, at a 2:1 E:T ratio. […] FIG. 5. AP21967 was not required to trigger the CD19 specific cytotoxicity. […]"}},
  "data": [
    {"molecule": "CO[C@H]1[C@@H](O)[C@H](C)C[C@H](C)/C=C/C=C/C=C(\\C)[C@@H](c2c[nH]c3c(C)cccc23)C[C@@H]2CC[C@@H](C)[C@@](O)(O2)C(=O)C(=O)N2CCCC[C@H]2C(=O)O[C@H]([C@H](C)C[C@@H]2CC[C@@H](O)[C@H](OC)C2)C[C@H](O)[C@H](C)/C=C(\\C)[C@H]1O", "note": "[AP21967, C-16-(S)-7-methylindolerapamycin]", "values": [
      {"measurement": "effect of AP21967 in the IFNγ release co-culture", "setting": "K562-BCMA positive cells [1]", "value": "did not substantially affect cytotoxicity"},
      {"measurement": "effect of AP21967 on cytotoxicity", "setting": "K562-BCMA positive cells [2]", "value": "no effect on cytotoxicity"},
      {"measurement": "IC50", "setting": "[3]", "value": 0.01, "unit": "µM"},
      {"measurement": "requirement of AP21967 for CD19 specific cytotoxicity", "setting": "[4]", "value": "not required"}
    ]}
  ]
}
